Experimental data: patent publication US20090155784A1, “ASSESSMENT OF ASTHMA AND ALLERGEN-DEPENDENT GENE EXPRESSION” (Wyeth, priority 2007, published 2009)

Key:
[1] = system: PBMCs from healthy volunteers; experiment: HG-U133A transcriptional profiling of allergen-stimulated PBMCs of healthy volunteers (HV/WHV), with and without cPLA2 inhibitor, 6 days culture; format: cell-based, human
Description: PBMCs were stimulated in vitro with a cocktail containing 4 different allergens from house dust mite, ragweed and cat. Recombinant allergens, Der p1, Der f2, Fel d1 (Indoor Biotech, Charlottesville, Va.) and natural ragweed allergen (Allergy Lab, Seattle, Wash.) were selected and screened for endotoxin contamination (LAL Endotoxin Test, Catalog #HIT302, sensitivity, 0.0001 Eu/ml, Cell Sciences, Canton, Mass.). The sensitivity of the subjects was unknown but the allergens were chosen based on the estimate that 80% of allergic individuals are believed to react to one or more of these allergens. Culture medium contained RPMI-1640 (Sigma) with 10% heat inactivated FCS (Sigma St. Louis, Mo.) and 100 unit/mL Penicillin and […] Streptomycin and 0.292 mg/mL Glutamine (GIBCO RL Invitrogen, Carlsbad, Calif.). The final allergen cocktail concentrations in culture medium were: Der p1 and Der f2 (dust mite), 1 mg/ml; Fel d1 (cat), 1.25 mg/ml; ragweed, 125 mg/ml. The total level of endotoxin contamination in culture medium was 0.057 Eu/ml. The cPLA2 inhibitor 4-{3-[1-benzhydryl-5-chloro-2-(2-{[(2,6-dimethylbenzyl)sulfonyl]amino}ethyl)-1H-indol-3-yl]propyl}benzoic acid was used at a concentration of 0.3 μM/ml. Zileuton, a 5-lipoxygenase inhibitor, was added at a concentration of 5 μM. The inhibitory activity of both the cPLA2 inhibitor and Zileuton samples were verified in a human whole blood assay. After 6 days in culture approximately 200 μL of supernatant was removed using an 8-channel pipettor without disturbing the cell pellet and placed into a collection plate for cytokine ELISA assays. To the remaining cell pellet 100 μL of RLT lysis buffer containing 1% beta-mercaptoethanol was added and snap frozen for RNA purification.
RNA was purified using QIA shredders and Rneasy mini kits (Qiagen, Valencia, Calif.). PBMC pellets frozen in RLT lysis buffer containing 1% β-mercaptoethanol were thawed and processed for total RNA isolation using the QIA shredder and RNeasy mini kit. A phenol:chloroform extraction was then performed, and the RNA was repurified using the RNeasy mini kit reagents. Eluted RNA was quantified using a Spectramax96 well plate UV reader (Molecular Devices, Sunnyvale, Calif., USA) monitoring A260/280 OD values. The quality of each RNA sample was assessed by capillary electrophoresis alongside an RNA molecular weight ladder on the Agilent 2100 bioanalyzer (Agilent Technologies, Palo Alto, Calif., USA). RNA samples were assigned quality values of intact (distinct 18S and 28S bands); partially degraded (discernible 18S and 28S bands with presence of low molecular weight bands) or completely degraded (no discernible 18S and 28S bands).
Labeled targets for oligonucleotide arrays were prepared using a modification of the procedure described by Lockhart et al. (Lockhart (1996) Nat. Biotechnol. 14:1675-80). Labeled targets were hybridized to the HG-U133A Affymetrix GeneChip Array as described in the Affymetrix technical manual. Eleven biotinylated control transcripts ranging in abundance from 3 parts per million (ppm) to 100 ppm were spiked into each sample to function as a standard curve (Hill (2001) Genome Biol. 2:RESEARCH0055). GeneChip MAS 5.0 software was used to evaluate the hybridization intensity, compute the signal value for each probe set and make an absent/present call.
GeneChips were required to pass the pre-set quality control criteria that the RNA quality metric required a 5′:3′ ratio. Two asthma subjects were excluded from the study due to failure to meet the RNA quality metric and 2 GeneChips from the group treated with cPLA2a inhibitor were excluded for the same reason. The signal value for each probe set was converted into a frequency value representative of the number of transcripts present in 10^6 transcripts by reference to the standard curve (Hill (2001) Genome Biol. 2:RESEARCH0055). […]

human whole blood = human whole blood assay verifying inhibitory activity of the inhibitor samples; format: cell-based

For `Cc1cccc(C)c1CS(=O)(=O)NCCc1c(CCCc2ccc(C(=O)O)cc2)c2cc(Cl)ccc2n1C(c1ccccc1)c1ccccc1` [cPLA2 inhibitor, 4-{3-[1-benzhydryl-5-chloro-2-(2-{[(2,6-dimethylbenzyl)sulfonyl]amino}ethyl)-1H-indol-3-yl]propyl}benzoic acid], the “genes down regulated in response to allergen in Network 1 in the healthy population” value ([1]; allergen + inhibitor, data not shown) was “brought up to non-allergen-stimulated background levels”, the “Fold Change WHV Allergen vs. cPLA2 inhibitor” value ([1]; gene C10ORF3, probeset 218542_at) was −1.335 and the “Fold Change WHV Allergen vs. cPLA2 inhibitor” value ([1]; gene CDC2, probeset 203213_at) was −1.258. The “Fold Change WHV Allergen vs. cPLA2 inhibitor” value ([1]; gene CHIT1, probeset 208168_s_at) was 2.013, the “Fold Change WHV Allergen vs. cPLA2 inhibitor” value ([1]; gene DAB2, probeset 201279_s_at) was 1.413 and the “Fold Change WHV Allergen vs. cPLA2 inhibitor” value ([1]; gene DAB2, probeset 210757_x_at) was 1.326. The “Fold Change WHV Allergen vs. cPLA2 inhibitor” value ([1]; gene DUSP4, probeset 204014_at) was −1.388, the “Fold Change WHV Allergen vs. cPLA2 inhibitor” value ([1]; gene DUSP4, probeset 204015_s_at) was −1.157 and the “Fold Change WHV Allergen vs. cPLA2 inhibitor” value ([1]; gene FABP3, probeset 205738_s_at) was −1.037. For the same compound, the “Fold Change WHV Allergen vs. cPLA2 inhibitor” value ([1]; gene FLJ23311, probeset 219990_at) was 1.042, the “Fold Change WHV Allergen vs. cPLA2 inhibitor” value ([1]; gene GM2A, probeset 33646_g_at) was 1.344 and the “Fold Change WHV Allergen vs. cPLA2 inhibitor” value ([1]; gene GM2A, probeset 209727_at) was 1.211. The “Fold Change WHV Allergen vs. cPLA2 inhibitor” value ([1]; gene HS3ST2, probeset 219697_at) was 1.288, the “Fold Change WHV Allergen vs. cPLA2 inhibitor” value ([1]; gene ME1, probeset 204059_s_at) was 1.518 and the “Fold Change WHV Allergen vs. cPLA2 inhibitor” value ([1]; gene MELK, probeset 204825_at) was −1.213. The “Fold Change WHV Allergen vs. cPLA2 inhibitor” value ([1]; gene OIP5, probeset 213599_at) was −1.067, the “Fold Change WHV Allergen vs. cPLA2 inhibitor” value ([1]; gene PAPSS2, probeset 203060_s_at) was 1.13 and the “Fold Change WHV Allergen vs. cPLA2 inhibitor” value ([1]; gene PLEKHB2, probeset 201411_s_at) was 1.277. For the same compound, the “Fold Change WHV Allergen vs. cPLA2 inhibitor” value ([1]; gene POLG, probeset 213007_at) was −1.337, the “Fold Change WHV Allergen vs. cPLA2 inhibitor” value ([1]; gene RACGAP1, probeset 222077_s_at) was −1.108 and the “Fold Change WHV Allergen vs. cPLA2 inhibitor” value ([1]; gene RUVBL1, probeset 201614_s_at) was −1.144. For the same compound, the “Fold Change WHV Allergen vs. cPLA2 inhibitor” value ([1]; gene SLC36A1, probeset 213119_at) was 1.279, the “Fold Change WHV Allergen vs. cPLA2 inhibitor” value ([1]; gene SLC38A6, probeset 214830_at) was 1.206 and the “Fold Change WHV Allergen vs. cPLA2 inhibitor” value ([1]; gene SLC39A14, probeset 212110_at) was −1.568. For the same compound, the “Fold Change WHV Allergen vs. cPLA2 inhibitor” value ([1]; gene SLCO2B1, probeset 203472_s_at) was 1.211, the “Fold Change WHV Allergen vs. cPLA2 inhibitor” value ([1]; gene SLCO2B1, probeset 203473_at) was 1.237 and the “Fold Change WHV Allergen vs. cPLA2 inhibitor” value ([1]; gene SMC2L1, probeset 204240_s_at) was −1.27. For the same compound, the “Fold Change WHV Allergen vs. cPLA2 inhibitor” value ([1]; gene SN, probeset 219519_s_at) was 1.618, the “Fold Change WHV Allergen vs. cPLA2 inhibitor” value ([1]; gene TRIP13, probeset 204033_at) was −1.317 and the “Fold Change WHV Allergen vs. cPLA2 inhibitor” value ([1]; gene UNK_AI859865, probeset 222036_s_at) was −1.29. The “Fold Change WHV Allergen vs. cPLA2 inhibitor” value ([1]; gene UNK_BE966236, probeset 201890_at) was −1.202 and the “inhibitory activity in a human whole blood assay” value (human whole blood) was “verified”.
